This note sets out measurements from patent publication US20100234364A1, “CCR2 INHIBITORS AND METHODS OF USE THEREOF” (priority 2007, published 2010).

The IC50 is the concentration at which inhibition is half-maximal.

The target of this experiment is T1, CCR2 (Homo sapiens, UniProt P41597).
T1 construct: chemokine expressing cells (such as THP-1 cells for CCR2 assay or MOLT-4 cells for CCR9 assay); host or cells: THP-1 cells
The experiment can be described thus: chemotaxis (conventional migration), ligand binding or calcium mobilization (calcium flux) assays. It is filed as cell-based. The protocol:
THP-1 cells and MOLT-4 cells were obtained from the American Type Culture Collection (Manassas, Va.) and cultured in RPMI tissue culture medium supplemented with 10% fetal calf serum (FCS) in a humidified 5% CO2 incubator at 37° C. Recombinant human chemokine proteins MCP-1 and TECK were obtained from R&D Systems (Minneapolis, Minn.). ^125I-labeled MCP-1 protein was obtained from Amersham (Piscataway, N.J.). ChemoTX® chemotaxis microchambers were purchased from Neuro Probe (Gaithersburg, Md.). CyQUANT® cell proliferation kits were purchased from Molecular Probes (Eugene, Oreg.). Calcium indicator dye Fluo-4 AM was purchased from Molecular Devices (Mountain View, Calif.).
Conventional-migration assay was used to determine the efficacy of potential receptor antagonists in blocking migration mediated through chemokines (such as CCR2 or CCR9). This assay was routinely performed using the ChemoTX® microchamber system with a 5-μm pore-sized polycarbonate membrane. To begin such an assay, chemokine expressing cells (such as THP-1 cells for CCR2 assay or MOLT-4 cells for CCR9 assay) were harvested by centrifugation of cell suspension at 1000 RPM on a GS-6R Beckman centrifuge. The cell pellet was resuspended in chemotaxis buffer (HBSS with 0.1% BSA) at 10×10^6cells/mL for CCR2 assay (5 ×10^6cells/mL for CCR9 assay). Test compounds at desired concentrations were prepared from 10 mM stock solutions by serial dilutions in chemotaxis buffer. An equal volume of cells and compounds were mixed and incubated at room temperature for 15 minutes. Afterwards, 20 μL of the mixture was transferred onto the porous membrane of a migration microchamber, with 29 μL of chemokine ligand (0.1 nM chemokine MCP-1 protein for CCR2 assay or 50 nm chemokine TECK protein for CCR9 assay) placed at the lower chamber. Following an incubation at 37° C. (90-minute for CCR2; 150-minute for CCR9), during which cells migrated […] the chemokine gradient, the assay was terminated by removing the cell drops from atop the filter. To quantify cells migrated across the membrane, 5 μL of 7X CyQUANT® solution was added to each well in the lower chamber, and the fluorescence signal measured on a Spectrafluor Plus fluorescence plate reader (TECAN, Durham, N.C.). The degree of inhibition was determined by comparing migration signals between compound-treated and untreated cells. IC50 calculation was further performed by non-linear squares regression analysis using Graphpad Prism (Graphpad Software, San Diego, Calif.).
Calcium flux assay measures an increase in intracellular calcium following ligand-induced receptor activation. In the screen of chemokine antagonists, it was used as a secondary assay carried out on a FLIPR® machine (Molecular Devices, Mountain View, Calif.). To begin an assay, chemokine expressing cells (such as THP-1 cells for CCR2 assay or MOLT-4 cells for CCR9 assay) were harvested by centrifugation of cell suspension, and resuspended to 1.5×10^6 cells/mL in HBSS (with 1% fetal calf serum). Cells were then labeled with a calcium indicator dye Fluo-4 AM for 45 minutes at 37° C. with gentle shaking. Following incubation, cells were pelletted, washed once with HBSS and resuspended in the same buffer at a density of 1.6×10^6 cells/mL. One hundred microliters of labeled cells were mixed with 10 μL of test compound at the appropriate concentrations on an assay plate. Chemokine protein (MCP-1 at a final concentration of 0.1 nM for CCR2 assay or TECK at a final concentration of 25 nM for CCR9 assay) to activate the receptor. The degree of inhibition was determined by comparing calcium signals between compound-treated and untreated cells. IC50 calculations were further performed by non-linear squares regression analysis using Graphpad Prism (Graphpad Software, San Diego, Calif.).
Ligand binding assay was used to determine the ability of potential CCR2 antagonists to block the interaction between CCR2 and its ligand MCP-1. […]
(In general: Calcium assays in cells follow changes in intracellular calcium, usually with a dye or a luminescent sensor.)

The mark [1] stands for this setting: Table 2: activity in one of the chemotaxis.
Where [2] appears, read: Table 3: activity in one of the chemotaxis.

T1 sequence (P41597 whole entry): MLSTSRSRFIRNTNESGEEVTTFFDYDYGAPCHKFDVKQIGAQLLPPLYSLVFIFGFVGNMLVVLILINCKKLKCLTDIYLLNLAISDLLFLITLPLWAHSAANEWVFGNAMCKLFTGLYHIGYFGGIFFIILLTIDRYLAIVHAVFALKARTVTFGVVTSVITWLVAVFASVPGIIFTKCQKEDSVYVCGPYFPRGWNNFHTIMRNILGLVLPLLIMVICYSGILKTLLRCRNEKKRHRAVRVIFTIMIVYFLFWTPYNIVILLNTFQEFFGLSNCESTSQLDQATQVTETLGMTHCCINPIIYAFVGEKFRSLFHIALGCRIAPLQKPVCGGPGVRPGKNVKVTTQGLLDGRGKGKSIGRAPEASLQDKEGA

As to `O=C(c1ccccc1)c1ccc(Cl)cc1NS(=O)(=O)c1ccc(Cl)c(C(F)(F)F)c1` [drawing 278], under setting [1], the IC50 is under 0.5 µM.

As for `O=C(c1ccc(Cl)cc1NS(=O)(=O)c1ccc(Cl)c(C(F)(F)F)c1)N1CCCCC1` [drawing 291], the IC50 under setting [1] is under 0.5 µM.

Turning to `O=C(c1ccccc1)c1cc(Cl)ccc1NS(=O)(=O)c1ccc(Cl)c(Cl)c1` [drawing 296], the IC50 under setting [1] is under 0.5 µM.

Take `O=C(c1ccccc1)c1cc(Cl)ccc1NS(=O)(=O)c1ccc(Cl)cc1` [drawing 298]: under setting [1], the IC50 is under 0.5 µM.

On to `O=C(c1ccccc1)c1cc(F)ccc1NS(=O)(=O)c1ccc(Cl)c(Cl)c1` [drawing 300], for which the IC50 under setting [1] is under 0.5 µM.

Take `O=C(c1ccccc1)c1ccc(Br)cc1NS(=O)(=O)c1ccc(Cl)c(Cl)c1` [drawing 301]: under setting [1], the IC50 was under 0.5 µM.

For `O=C(c1ccccc1)c1cc(Cl)ccc1NS(=O)(=O)c1ccc(Cl)c(C(F)(F)F)c1` [drawing 302], the IC50 under setting [1] was under 0.5 µM.

Consider `Cn1ccnc1C(O)c1cc(Cl)ccc1NS(=O)(=O)c1ccc(Cl)c(Cl)c1` (stereo not drawn) [drawing 303], for which the IC50 under setting [1] was under 0.5 µM.

Turning to `O=S(=O)(Nc1ccc(Cl)cc1-c1nnn[nH]1)c1ccc(Cl)c(Cl)c1` [drawing 304], under setting [1], the IC50 was under 0.5 µM.

Regarding `O=C(c1ccc(F)cc1)c1cc(Cl)ccc1NS(=O)(=O)c1ccc(Cl)c(Cl)c1` [drawing 305], under setting [1], the IC50 is under 0.5 µM.

In the case of `O=C(c1ccccc1F)c1cc(Cl)ccc1NS(=O)(=O)c1ccc(Cl)c(Cl)c1` [drawing 306], the IC50 under setting [1] was under 0.5 µM.

`Cn1ccc(C(=O)c2cc(Cl)ccc2NS(=O)(=O)c2ccc(Cl)c(C(F)(F)F)c2)n1` [drawing 311]: the IC50 under setting [1] was under 0.5 µM.

As for `Cn1ccc(C(=O)c2cc(Cl)ccc2NS(=O)(=O)c2ccc(Cl)c(C(F)(F)F)c2)n1` [drawing 322], under setting [2], the IC50 was in the range of 0.5 to 5 µM.

Consider `O=S(=O)(Nc1ccc(Cl)cc1-c1nnn[nH]1)c1ccc(Cl)c(Cl)c1` [drawing 325], for which the IC50 under setting [2] was in the range of 0.5 to 5 µM.

In the case of `Cn1ccnc1C(O)c1cc(Cl)ccc1NS(=O)(=O)c1ccc(Cl)c(Cl)c1` (stereo not drawn) [drawing 327], the IC50 under setting [2] was in the range of 0.5 to 5 µM.

Consider `O=C(c1ccccc1)c1ccc(Br)cc1NS(=O)(=O)c1ccc(Cl)c(Cl)c1` [drawing 328], for which the concentration for half-maximal inhibition (IC50) under setting [2] was 0.5 to 5 µM.

Consider `O=C(c1ccccc1)c1cc(Cl)ccc1NS(=O)(=O)c1ccc(Cl)cc1` [drawing 330], for which the concentration for half-maximal inhibition (IC50) under setting [2] lay in the range of 0.5 to 5 µM.

Consider `O=C(c1ccccc1F)c1cc(Cl)ccc1NS(=O)(=O)c1ccc(Cl)c(Cl)c1` [drawing 335], for which the IC50 under setting [2] was in the range of 0.5 to 5 µM.

For `O=C(c1ccc(F)cc1)c1cc(Cl)ccc1NS(=O)(=O)c1ccc(Cl)c(Cl)c1` [drawing 336], the IC50 under setting [2] fell in the range of 0.5 to 5 µM.

Take `O=C(c1ccccc1)c1cc(Cl)ccc1NS(=O)(=O)c1ccc(Cl)c(C(F)(F)F)c1` [drawing 337]: the IC50 under setting [2] lay within 0.5 to 5 µM.

With `O=C(c1ccccc1)c1cc(F)ccc1NS(=O)(=O)c1ccc(Cl)c(Cl)c1` [drawing 338], the IC50 under setting [2] fell in the range of 0.5 to 5 µM.

Consider `O=C(c1ccccc1)c1cc(Cl)ccc1NS(=O)(=O)c1ccc(Cl)c(Cl)c1` [drawing 342], for which the IC50 under setting [2] lay within 0.5 to 5 µM.

In the case of `O=C(c1ccccc1)c1ccc(Cl)cc1NS(=O)(=O)c1ccc(Cl)c(C(F)(F)F)c1` [drawing 344], the IC50 under setting [2] lay in the range of 0.5 to 5 µM.

Consider `O=C(c1ccc(Cl)cc1NS(=O)(=O)c1ccc(Cl)c(C(F)(F)F)c1)N1CCCCC1` [drawing 371], for which the IC50 under setting [2] was 0.5 to 5 µM.
